System: hind leg scratching behaviour induced by 5-methoxytryptamine hydrochloride
Test: Inhibition of hind leg scratching behaviour induced in rats by a pruritogenic agent
Assay type: in vivo, Male Wistar rats
Conditions: rat, pruritogen 5-methoxytryptamine hydrochloride 4 mg/3 mL/kg s.c.; test compound s.c. in aqueous micelle formulation; scratching score over 25 minutes
Description: The compounds of the invention are evaluated for their activity as antipruritic agents by measuring their ability to inhibit the hind leg scratching behaviour induced in rats by the administration of a known pruritogenic agent. These studies are based on the procedure described by Berendsen and Broekkamp in the European Journal of Pharmacology, 1991, 194, 201. The test is performed as follows: • Male Wistar rats (approximately 150 g body weight) are challenged with a pruritogen by subcutaneous injection of 5-methoxytryptamine hydrochloride (4 mg/3 mL/kg) dissolved in physiological saline into the scruff of the neck. At this dose a constant and quantifiable hindleg scratching response lasting up to 90 minutes is obtained. • The test compound is administered to the test animals by subcutaneous injection in an aqueous micelle formulation. The test compound is prepared in the following manner. […] The compounds can be administered pre- or post-challenge or may be administered at the same time as the pruritogenic challenge. • After the pruritogen challenge has been administered, hindleg scratching is scored for each animal by recording the presence or absence of scratching during each 30 second interval as 1 or 0 scored respectively. […]

CCCCCCN1CC[C@@](C)(c2cccc(OC(=O)NC)c2)[C@H](C)C1 (racemic) [Example 2, (±)-3-(1-Hexyl-trans-3,4-dimethyl-4-piperidinyl)phenyl methylcarbamate]
anti-pruritic activity: found to display anti-pruritic activity

From patent US7012083B2, “Compounds useful in therapy” (Pfizer Inc., priority 1999, dated 2006)
